Test results: patent US7947312B2, “Method of preparation and composition of a water soluble extract of the bioactive component of the plant species Uncaria for enhancing immune, anti-inflammatory, anti-tumor and DNA repair processes of warm blooded animals” (priority 2002, dated 2011)
Counter-ions that a name gives are not always drawn.

How the values were obtained:
[1] = tested on: HL-60 human leukemic cells; experiment: In vitro cytotoxicity in HL-60 cells, MTT assay (Table 2); type: cell-based; conditions: Homo sapiens, HL-60; no base hydrolysis
Protocol: In Table 2, the in vitro cytotoxicity of the various components were determined in HL-60 human leukemic cells using the MTT assay and calculation of IC50 values as described in detail elsewhere. Quinic acid ester content was determined by the Bartos method (Bartos, 1980). […] The quinic acid traveling between Rf=0.2-0.3 was eluted from the TLC plates with 1% aqueous ammonia and the relative quantity estimated by absorption at 200 nm as ± being less than 0.050 and “++++” denoting the highest amount detected, with a decrease in the number of “+” signs corresponding to a decrease in the amount of QA detected.

[2] = tested on: human HL-60 leukemic cells; experiment: In vitro growth inhibition by QA salts in cultured HL-60 cells, MTT, 72 hr (FIG. 8); type: cell-based; conditions: for in vitro cytotoxicity compared to C-MED-100 (FIG. 8): HL-60 cells
Protocol: QA was purchased from Sigma (>99%). QA salts were synthesized by neutralization with the appropriate base, i.e., NH4OH, NaOH, Ca(OH)2, Zn(OH)2, LiOH, KOH, lysine or histidine. Serial dilutions of test compounds were added to human HL-60 leukemic cells (0.05×10^6 cells/ml) in 96-well, flat bottomed microtiter plates to give final concentrations in the cultures up to 3000 μg/ml. The plates were incubated for 72 hr at 37 C, pulsed with 20 μl MTT (5 mg/ml) for 3 hr, and the color estimated spectrophotometrically at 540 nm as described previously. (Schweitzer, C M et al. Spectrophotometric determination of clonogenic capacity of leukemic cells in semisolid microtiter culture systems. Experimental Hematology 21: 573-578, 1993). IC50 values were calculated and compared based on the live/dead ratio of cells.

DXR-induced leucopenia = experiment: Doxorubicin (DXR)-induced leucopenia rat model, recovery of peripheral WBC; type: in vivo; conditions: 200 mg/kg gavage, compared to C-MED-100
Excerpt: In vivo evaluation of the efficacy of quinic acid as an active ingredient isolated from water soluble Cat's Claw extracts. A rat model was used to evaluate if active ingredients isolated from water soluble extracts of Cat's Claw could be shown to be effective in vivo by inducing recovery of peripheral white blood cells (WBC) after doxorubicin (DXR)-induced leucopenia. […] The rat study experimental design used to compare quinic acid and C-MED-100® is outlined in detail (diagrammatic form) below.
50 female W/Fu rats, weighing 150-180 g each, were divided into 5 groups of 10 rats per group. Doxorubicin, obtained from Pharmacia and Upjohn, was administered in a 2 mg/kg dose for all rats groups 2-5, IP injection (day 1, 3, 5). Group 3 also received C-MED-100® (Batch No E-40622), administered in a dose of 80 mg/kg, gavage daily from day 6 (24 hours after the third/last treatment of DXR) to the end of experiment (day 21/22). […]
The body weight (GM) of each rat was measured before and at the end of the experiment. […] Whole peripheral blood samples were collected into K3-EDTA containing tubes by periorbital puncture and then analyzed for WBC within 1 hour with an automated hematology analyzer (Sysmex, K-1000) Organ weights from major tissues (liver, kidney, lung, heart, spleen) were also collected and used as an indicator of any toxicity.

NF-κB = NF-κB reporter (luciferase) in transfected Jurkat T cells; type: cell-based, human; conditions: PMA 50 ng/ml and ionomycin 1 μM, 2 h pre-culture, 6 h stimulation
Protocol: FIG. 5A illustrates Jurkat T that are cells transfected with a NF-κB reporter construct were pre-cultured with various concentrations of QA or C-MED-100® for two hours. PMA (50 ng/ml) and ionomycin (1 μM) were thereafter added and the cells incubated for another six hours. The mean induction of luciferase activity in triplicate cultures from one representative experiment out of four are shown (left panel). QA induced no cell death or apoptosis in Jurkat T cells at concentrations which inhibited NF-κB activity. Jurkat T cells were incubated with various concentrations of QA for 24 hours and thereafter stained with Annexin V and 7AAD before analysis by flow cytometry. The data are the mean values±S.D. of triplicates from one representative experiment out of two performed (right panel). Transient transfection and analysis of luciferase activity: The reporter construct containing NF-κB binding sequences and the luciferase reporter gene was previously described. […] The cells were lysed and aliquots of the lysates analyzed for luciferase activity using the Luciferase Assay System (Promega, Madison, Wis.). Luminiscence was quantitated in a MicroLumat LB 96 P luminometer (EG&G Berthold, Wallac […], Upplands Väsby, Sweden).

SMILES | IC50 [1] [µg/mL] | in vitro cytotoxicity compared to C-MED-100 (FIG. 8) [2] | recovery from DXR-induced leucopenia (DXR-induced leucopenia) | NF-κB activity (luciferase reporter) (NF-κB) | IC50 ([2]; Homo sapiens, HL-60) [µg/mL]
O=C(O)C1(O)CC(O)C(O)C(O)C1 (stereo not drawn) [QA, 1,3,4,5-tetrahydroxy-cyclohexanecarboxylic acid] | > 2300 | much greater in vitro cytotoxicity than does C-MED-100® | could induce recovery from DXR-induced leucopenia about as effectively as 80 mg/kg C-MED-100® could | in a dose dependent manner, inhibited the NF-κB activity | –
O=C(O)[C@]1(O)C[C@@H](O)[C@@H](O)[C@H](O)C1 [QAA, quinic acid ammonium salt] | 500 | in vitro cytotoxicity comparable to that of C-MED-100® | could induce recovery from DXR-induced leucopenia about as effectively as 80 mg/kg C-MED-100® could | inhibited the NF-κB activity to a similar extent as QA | ≤ 1100
